We go through 16 compounds from ChEMBL document CHEMBL3822388, “In vivo phenotypic drug discovery: applying a behavioral assay to the discovery and optimization of novel antipsychotic agents” (Medchemcomm, 2016).

In data set [1] the test system is Mus musculus. Nature of the data set: Antipsychotic activity in mouse at 30 mg/kg, ip administered 15 mins prior to testing by SmartCube automated system based method relative to standard compound. In kind it is functional.
For another data set, the target named is CYP1A (Homo sapiens, UniProt P04798+P05177). Briefly: Inhibition of CYP1A in human liver microsomes assessed as reduction in ethoxyresorufin o-deethylation by fluorescence assay. Particulars: probe ethoxyresorufin (O-deethylation). In general terms: Liver microsomes are vesicles of endoplasmic reticulum, rich in cytochrome P450 enzymes.
Data set [2] can be described thus: Half life in rat liver microsomes at 3 uM in presence of NADPH by LC-MS/MS analysis. In kind it is ADME.
Data set [3] can be described thus: Protein binding in mouse plasma at 5 uM by LC-MS/MS based equilibrium dialysis method. In kind it is ADME, cell-free. Particulars: read-out: PPB (converted). (In general: In equilibrium dialysis only unbound substance equilibrates across the membrane.)
Data set [4] concerns Mus musculus. Briefly: Antipsychotic activity in mouse at 30 mg/kg, ip administered 15 mins prior to testing by SmartCube automated system based method relative to vehicle. In kind it is functional.
The next data set deals with Cytochrome P450 2C19 (Homo sapiens, UniProt P33261). Briefly: Inhibition of CYP2C19 in human liver microsomes assessed as reduction in S-mephenytoin 4-hydroxylation by LC-MS/MS analysis. In kind it is ADME.
Cytochrome P450 2C19, sequence (P33261 whole entry): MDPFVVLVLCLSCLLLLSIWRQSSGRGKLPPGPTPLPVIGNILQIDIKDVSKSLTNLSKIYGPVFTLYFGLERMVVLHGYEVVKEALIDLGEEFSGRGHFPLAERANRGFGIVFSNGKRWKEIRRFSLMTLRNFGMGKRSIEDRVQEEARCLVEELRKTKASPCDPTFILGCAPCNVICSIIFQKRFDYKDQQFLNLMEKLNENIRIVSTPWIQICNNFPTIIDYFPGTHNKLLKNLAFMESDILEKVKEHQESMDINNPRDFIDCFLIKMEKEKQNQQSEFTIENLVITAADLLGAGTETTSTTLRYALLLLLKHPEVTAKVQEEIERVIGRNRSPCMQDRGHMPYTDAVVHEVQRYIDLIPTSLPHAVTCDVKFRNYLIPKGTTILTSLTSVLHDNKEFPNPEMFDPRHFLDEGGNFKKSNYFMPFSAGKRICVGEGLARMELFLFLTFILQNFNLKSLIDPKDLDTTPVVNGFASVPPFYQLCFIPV
The target in data set [5] is D(2) dopamine receptor (Homo sapiens) (UniProt P14416). Nature of the data set: Displacement of [3H]methyl-spiperone from human recombinant D2 receptor expressed in HEK293 cells at 10 uM after 60 mins by scintillation counting analysis. In kind it is cell-based.
D(2) dopamine receptor (Homo sapiens), sequence (P14416 whole entry): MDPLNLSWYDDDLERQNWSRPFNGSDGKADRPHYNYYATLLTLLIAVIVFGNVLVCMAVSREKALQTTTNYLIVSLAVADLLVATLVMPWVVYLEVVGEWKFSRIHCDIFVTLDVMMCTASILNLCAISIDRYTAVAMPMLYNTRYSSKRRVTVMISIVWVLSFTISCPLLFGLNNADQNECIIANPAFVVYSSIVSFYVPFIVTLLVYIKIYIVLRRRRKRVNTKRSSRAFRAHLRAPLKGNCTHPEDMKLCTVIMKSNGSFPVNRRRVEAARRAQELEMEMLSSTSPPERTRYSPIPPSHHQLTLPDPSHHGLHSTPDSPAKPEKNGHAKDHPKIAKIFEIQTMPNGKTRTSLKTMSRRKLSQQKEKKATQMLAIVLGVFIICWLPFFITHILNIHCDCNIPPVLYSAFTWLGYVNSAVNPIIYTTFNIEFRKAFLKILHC
The nature of data set [6]: Half life in mouse liver microsomes at 3 uM in presence of NADPH by LC-MS/MS analysis. In kind it is ADME.
A further data set has as its target Cytochrome P450 2D6 (Homo sapiens, UniProt P10635). Nature of the data set: Inhibition of CYP2D6 in human liver microsomes assessed as reduction in dextromethorphan o-demethylation by LC-MS/MS analysis. In kind it is ADME.
Data set [7] addresses Voltage-gated inwardly rectifying potassium channel KCNH2 (Homo sapiens, UniProt Q12809). Nature of the data set: Inhibition of human ERG. Particulars: read-out: IC50.
Data set [8] in a line: Protein binding in rat plasma at 5 uM by LC-MS/MS based equilibrium dialysis method. In kind it is ADME, cell-free. The note with it: read-out: PPB (converted).
For another data set, the target named is Cytochrome P450 2C9 (Homo sapiens, UniProt P11712). Briefly: Inhibition of CYP2C9 in human liver microsomes assessed as reduction in tolbutamide 4-hydroxylation by LC-MS/MS analysis. In kind it is ADME.
Cytochrome P450 2C9, sequence (P11712 whole entry): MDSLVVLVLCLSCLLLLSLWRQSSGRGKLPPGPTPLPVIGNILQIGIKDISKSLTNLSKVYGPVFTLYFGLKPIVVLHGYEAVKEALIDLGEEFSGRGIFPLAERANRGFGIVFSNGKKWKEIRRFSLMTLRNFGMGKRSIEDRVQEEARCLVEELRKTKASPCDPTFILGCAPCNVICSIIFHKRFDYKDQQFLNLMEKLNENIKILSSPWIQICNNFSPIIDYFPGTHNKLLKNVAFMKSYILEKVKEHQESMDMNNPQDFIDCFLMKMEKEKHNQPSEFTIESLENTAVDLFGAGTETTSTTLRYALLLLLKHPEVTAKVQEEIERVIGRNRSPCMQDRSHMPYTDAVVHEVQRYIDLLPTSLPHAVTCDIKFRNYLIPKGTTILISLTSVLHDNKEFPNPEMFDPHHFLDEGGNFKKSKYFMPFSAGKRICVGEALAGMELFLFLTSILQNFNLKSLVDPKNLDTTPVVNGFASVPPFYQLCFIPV
For another data set, the target named is Cytochrome P450 3A4 (Homo sapiens, UniProt P08684). Briefly: Inhibition of CYP3A4 in human liver microsomes assessed as reduction in midazolam 1-hydroxylation/testosterone 6beta-hydroxylation by LC-MS/MS analysis. In kind it is ADME.
Cytochrome P450 3A4, sequence (P08684 whole entry): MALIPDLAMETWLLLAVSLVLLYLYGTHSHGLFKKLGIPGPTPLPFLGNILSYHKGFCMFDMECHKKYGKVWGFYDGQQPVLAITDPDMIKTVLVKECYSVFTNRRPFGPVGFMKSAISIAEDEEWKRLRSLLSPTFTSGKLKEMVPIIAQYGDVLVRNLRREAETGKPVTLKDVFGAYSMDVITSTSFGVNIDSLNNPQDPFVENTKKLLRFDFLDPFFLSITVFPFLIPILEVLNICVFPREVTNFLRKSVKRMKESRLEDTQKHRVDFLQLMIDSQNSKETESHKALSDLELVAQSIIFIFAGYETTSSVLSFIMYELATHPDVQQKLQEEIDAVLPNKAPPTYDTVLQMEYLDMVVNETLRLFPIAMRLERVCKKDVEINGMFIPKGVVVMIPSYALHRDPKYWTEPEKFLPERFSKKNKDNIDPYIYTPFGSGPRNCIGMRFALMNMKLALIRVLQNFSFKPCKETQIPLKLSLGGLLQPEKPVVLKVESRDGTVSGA
Data set [9] is described as follows: Half life in human liver microsomes at 3 uM in presence of NADPH by LC-MS/MS analysis. In kind it is ADME.
Data set [10] relates to Mus musculus. Nature of the data set: Antipsychotic activity in ip dosed mouse administered 15 mins prior to testing by SmartCube automated system based method. In kind it is functional. The note with it: Mus musculus, ip; read-out: MED.

pIC50: −log10 of the molar value. Calls of active or inactive are those of the source. The calls are words filed in the database; no cut-off is given here.

Cytochrome P450 2D6, sequence (P10635 whole entry): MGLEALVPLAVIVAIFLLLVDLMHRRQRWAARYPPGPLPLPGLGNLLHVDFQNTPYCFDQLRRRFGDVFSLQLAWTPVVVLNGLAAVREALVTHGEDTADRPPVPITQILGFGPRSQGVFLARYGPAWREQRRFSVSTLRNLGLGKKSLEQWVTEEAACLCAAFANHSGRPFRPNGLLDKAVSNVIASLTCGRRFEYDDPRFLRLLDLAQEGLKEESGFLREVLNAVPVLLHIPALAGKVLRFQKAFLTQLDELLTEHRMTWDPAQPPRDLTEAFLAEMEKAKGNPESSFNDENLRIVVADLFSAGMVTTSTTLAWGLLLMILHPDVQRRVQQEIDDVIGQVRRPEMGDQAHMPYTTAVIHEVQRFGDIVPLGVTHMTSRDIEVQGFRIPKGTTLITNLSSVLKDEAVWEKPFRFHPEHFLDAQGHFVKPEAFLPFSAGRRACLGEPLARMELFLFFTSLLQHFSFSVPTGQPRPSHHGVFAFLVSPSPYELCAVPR
Voltage-gated inwardly rectifying potassium channel KCNH2, sequence (Q12809 whole entry): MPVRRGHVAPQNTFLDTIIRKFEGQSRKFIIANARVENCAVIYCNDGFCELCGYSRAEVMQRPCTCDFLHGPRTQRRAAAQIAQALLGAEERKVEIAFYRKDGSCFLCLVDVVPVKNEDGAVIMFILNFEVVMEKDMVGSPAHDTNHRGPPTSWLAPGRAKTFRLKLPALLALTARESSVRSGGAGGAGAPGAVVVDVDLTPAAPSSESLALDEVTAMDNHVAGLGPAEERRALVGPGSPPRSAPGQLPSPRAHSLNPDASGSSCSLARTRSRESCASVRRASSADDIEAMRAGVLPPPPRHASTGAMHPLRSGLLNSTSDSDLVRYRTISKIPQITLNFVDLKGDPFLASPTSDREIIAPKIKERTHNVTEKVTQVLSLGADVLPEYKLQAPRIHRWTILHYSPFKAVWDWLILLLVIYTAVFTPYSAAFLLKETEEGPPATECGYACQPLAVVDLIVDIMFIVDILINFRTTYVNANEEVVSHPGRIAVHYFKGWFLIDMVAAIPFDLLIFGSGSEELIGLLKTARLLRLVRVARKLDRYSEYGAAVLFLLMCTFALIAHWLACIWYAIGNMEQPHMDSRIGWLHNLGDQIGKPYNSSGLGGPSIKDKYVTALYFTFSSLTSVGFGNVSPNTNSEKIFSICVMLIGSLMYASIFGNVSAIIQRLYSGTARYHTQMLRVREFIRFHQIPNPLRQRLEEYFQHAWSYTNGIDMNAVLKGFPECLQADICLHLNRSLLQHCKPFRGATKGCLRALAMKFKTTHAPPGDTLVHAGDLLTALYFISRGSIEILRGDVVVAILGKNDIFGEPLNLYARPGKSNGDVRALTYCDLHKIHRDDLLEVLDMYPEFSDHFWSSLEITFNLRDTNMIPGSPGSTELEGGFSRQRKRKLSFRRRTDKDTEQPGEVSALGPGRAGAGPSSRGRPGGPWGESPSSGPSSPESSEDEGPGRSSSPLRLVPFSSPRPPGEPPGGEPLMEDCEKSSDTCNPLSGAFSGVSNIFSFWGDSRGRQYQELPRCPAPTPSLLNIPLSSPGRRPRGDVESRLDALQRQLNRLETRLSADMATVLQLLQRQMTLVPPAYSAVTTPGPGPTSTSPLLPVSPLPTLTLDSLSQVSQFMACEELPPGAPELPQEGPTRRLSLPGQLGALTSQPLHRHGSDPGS

As for `Clc1c(C2C=CN=CN2)sc2ccccc12` (centres undefined), the result in the data set on Mus musculus [1] was Active. In general, pIC50 refers to the negative decadic logarithm of the IC50, by convention in mol/L. The half-life is the time in which the quantity being followed falls by half. As to `Cc1cc(C2C=CN=CN2)c(C)s1.Cl` (racemic), the pIC50 on CYP1A was below 4.60; on Cytochrome P450 2C19, 4.90; on Cytochrome P450 2D6 it was 5.20; in data set [7], below 4.60; on Cytochrome P450 2C9, below 4.60; at Cytochrome P450 3A4, 4.70. For the same compound, the Activity is reported as 40% in the data set on Mus musculus [1] and above 95% in the data set with Mus musculus [4]. In addition, the half-life at 3 µM was 39 min in [2], 155 min in [6] and 48 min in data set [9]. In addition, the fraction unbound at 5 µM in [3] is 0.24; in data set [8], 0.3. In addition, in data set [5], the inhibition entry is “inactive”. With `Cc1sc(C2C=CN=CN2)c(C)c1C.Cl` (centres undefined), in the data set on Mus musculus [10], the minimal effective dose is 30 mg/kg.

Take `Cc1c(C2C=CN=CN2)sc2ccccc12` (centres undefined): the outcome with Mus musculus [1] was Active. In the case of `CC1=NC=C(Cl)C(c2sc3ccccc3c2C)N1` (centres undefined), the outcome in the data set with Mus musculus [1] was Active. `Cc1sc2c(Cl)cccc2c1C1C=CN=CN1.Cl` (centres undefined): the minimal effective dose with Mus musculus [10] was 30 mg/kg. For `CCc1ccc(C2C=CN=CN2)s1.Cl` (centres undefined), the minimal effective dose in the data set with Mus musculus [10] was determined as 10 mg/kg. As to `Cc1sc2ccccc2c1C1NC(N)=NC=C1Cl.Cl` (centres undefined), the minimal effective dose with Mus musculus [10] came to 30 mg/kg. As for `Cc1c(F)sc(C2C=CN=CN2)c1C.Cl` (centres undefined), the minimal effective dose with Mus musculus [10] came out at 10 mg/kg. `CC1=NC=CC(c2c(C)sc3ccccc23)N1.Cl` (centres undefined): the minimal effective dose in the data set with Mus musculus [10] is 30 mg/kg. Consider `Cc1sc2c(c1C1C=CN=CN1)CCCC2.Cl` (centres undefined), for which the minimal effective dose with Mus musculus [10] amounted to 10 mg/kg. For the compound `Cc1sc2ccccc2c1C1C=CN=CN1C.Cl` (centres undefined), in the data set with Mus musculus [10], the minimal effective dose came out at 30 mg/kg.

With `Cc1sc2cc(Cl)ccc2c1C1C=CN=CN1.Cl` (centres undefined), the minimal effective dose in the data set on Mus musculus [10] turned out to be 30 mg/kg. With `CCc1cc(Br)c(C2C=CN=CN2)s1.Cl` (centres undefined), the minimal effective dose with Mus musculus [10] turned out to be 30 mg/kg. Consider `Brc1c(C2C=CN=CN2)sc2ccccc12` (centres undefined), for which, in the data set with Mus musculus [1], the result was Active. For `Cc1sc2c(c1C1C=CN=CN1)CCC2.Cl` (centres undefined), the minimal effective dose in the data set with Mus musculus [10] amounted to 10 mg/kg.
